# Data taken from patent US20040121968A1, “Antiangiogenesis by inhibiting protein kinase CK2 activity” (priority 2002, published 2004).
# Legend:
# [1] = system: retinal endothelial cells (REC); test: Matrigel assay of capillary-like tube formation; type: cell-based, bovine; settings: for inhibition of REC tube formation: basal and growth factor-stimulated (quercetin 50 μM, emodin, DRB 20-25 μM)
# Method: (§1) In vitro Matrigel™ assay of capillary-like tube formation and secondary sprouting. […] Briefly, 50 μL of reconstituted basement membrane matrix from mouse EHS tumor (BD or GFR Matrigel™; Becton Dickinson Labware, Bedford, Mass.) were dispensed with frozen pipettes into each well of a previously frozen, sterile 96-well plate sitting on wet ice and allowed to solidify for 1 hr at room temperature or 37° C. Approximately 5×10^4 or 7.5×10^4 REC in a 100 μL volume were seeded into each triplicate well. Human recombinant or purified growth factors were added to a final concentration of 10 ng/mL (or as noted) in 0.5% FCS incomplete BREC medium. Capillary-like tube structures formed by REC on reconstituted basement membrane matrix were photographed at various intervals ranging from 12-72 hr; pictures were scanned, digitized and analyzed using image-processing software. For the secondary sprouting assay, cells on reconstituted basement membrane matrix (BD Matrigel™) were seeded as above but incubated in 0.5% FCS incomplete BREC medium without any growth factors for 3 days, allowing for tube formation and collapse. On day 3, human recombinant or purified growth factors were added to a final concentration of 10 ng/mL (or as noted) in low-serum incomplete BREC medium and incubated for another 5-6 days. Digital photographs were obtained with a Kodak MDS 100 camera attached to a Leitz DM IL inverted microscope. Digitized images obtained with a Kodak MDS 100 video camera were stored on compact discs and quantified with NIH Image 1.62 software. The number of living cells in the sprouting colonies were determined using the MTS cell proliferation assay.
# (§2) The cells form tubes on Matrigel™ by 16 hr, and by 48 hr, without TN-C or growth factors, the tubes collapse. Secondary sprouting with Matrigel™ invasion starts by day four in culture. Cultures were monitored microscopically. Culture medium with or without growth factors or inhibitors was changed every two-three days.
# [2] = Solubility in water / vehicle; type: physicochemical
# [3] = system: retinal endothelial cells (REC); test: REC proliferation assay (MTS cell number); type: cell-based, bovine; settings: for inhibition of REC proliferation: basal and growth factor-stimulated (quercetin 50 μM, emodin, DRB 20-25 μM), H-7: preliminary, not shown
# Method: REC proliferation and survival assays. 96-well plates were coated with various amounts of TN-C or vehicle. […] Cell numbers were determined on days 4-7 using the MTS cell proliferation assay (Promega Corp.) according to manufacturer's instructions. Survival was measured in the same way using high glucose (30 mM) or chemical hypoxia (2 mM sodium azide) or serum-free medium to induce cell death. Cell numbers were determined on days 4-7 using MTS assay (Promega).
# [4] = system: oxygen-induced retinopathy in newborn mice; test: Oxygen-induced retinopathy in newborn mice (retinal neovascularization); type: in vivo, mouse; settings: for retinal neovascularization diminished by: two intraperitoneal injections daily, day 11-17 after birth, emodin 20-30 μg/g, vs untreated or vehicle-treated
# [5] = system: retinal endothelial cells (REC); test: Migration (wound healing) assay; type: cell-based, bovine; settings: for inhibition of REC migration: basal and growth factor-stimulated (quercetin 50 μM, emodin, DRB 20-25 μM), H-7: preliminary, not shown; for effect on growth factor-mediated cell migration: bovine REC, four GFs (IGF-1+FGF-2+VEGF+PlGF) 10 ng/ml each, 7 days, 0.5% serum, emodin 10 μM, DRB 15 μM
# Method: Migration assay. REC migration rates were examined in a wound healing assay, where cells migrate over time into the scrape wound in a monolayer. Briefly, cells were seeded in 24-well plates and allowed to reach confluence in growth medium. Prior to growth factor treatment, cells were serum-starved overnight in incomplete BREC medium with 0.5% FCS. All monolayers within an experiment were wounded with a single sterile wood stick of constant diameter, to ensure uniformity in the wound areas among different treatments. Wounded monolayers were then rinsed with low-serum medium to remove detached cells and treated with various combinations of human growth factors at 10 ng/mL each. On day 7, cells were rinsed 3× with PBS and fixed with methanol for 15 min, rehydrated with dH2O and stained with Meyer's hematoxylin for 5 min, followed by destaining with dH2O. All wells were photographed with a 4× or 10× objective using a Kodak MDS 100 digital camera attached to a Leitz DM IL inverted microscope. The original wound area was measured at 0 hr and used as a baseline for comparison to the treated wells at the conclusion of the experiment. The number of cells migrated into the wound was determined. Migrating cell counting was automated using the AAB (Advanced American Biotechnology, Fullerton, Calif.) software. Data were calculated and statistically analyzed (Spirin K S et al., Basement membrane and growth factor gene expression in normal and diabetic human retinas, Curr. Eye Res. 18:490-499 [1999]) relative to control cultures that received the same concentrations of bovine serum albumin instead of growth factors and/or inhibitor, compared to vehicle instead of inhibitor after wounding. Inhibitors were added 30 min before growth factors.
# [6] = system: retinal endothelial cells (REC); test: REC survival assay (low serum, MTS cell number); type: cell-based, bovine
# Method: REC proliferation and survival assays. 96-well plates were coated with various amounts of TN-C or vehicle. 5×10^3 cells were added to each triplicate well in low-serum REC medium with various amounts of growth factors (0.5% FCS incomplete BREC medium containing 10 ng/ml of human IGF-I, FGF-2, VEGF, PlGF and PDGF-BB [R&D Systems Inc., Minneapolis, Minn.]). Cell numbers were determined on days 4-7 using the MTS cell proliferation assay (Promega Corp.) according to manufacturer's instructions. Survival was measured in the same way using high glucose (30 mM) or chemical hypoxia (2 mM sodium azide) or serum-free medium to induce cell death. Cell numbers were determined on days 4-7 using MTS assay (Promega).
# [7] = system: retinal endothelial cells (REC); test: Secondary sprouting assay on Matrigel; type: cell-based, bovine; settings: for inhibition of REC secondary sprouting: basal and growth factor-stimulated (quercetin 50 μM, emodin, DRB 20-25 μM), H-7: preliminary, not shown
# Method: as §1, §2
# [8] = system: normal REC and DR REC gene expression; test: Gene array analysis of growth factor action on normal and DR REC; type: cell-based, human; settings: 10 ng/mL growth factor, seven days, 0.5% serum
# Method: Normal REC and DR REC gene expression patterns were compared by gene array analysis. Normal, diabetic and DR autopsy human eyes are obtained from National Disease Research Interchange (NDRI), within 24 hours after death. These eyes are used to isolate REC for culture as described hereinabove. Cultures can be used up to the fourth passage, and viable cultures can be cryogenically stored. Cultures of normal, diabetic and DR REC are established from autopsy human eyes and routinely checked for purity using von Willebrand factor immunostaining as described hereinabove. Cells are cultured in 50% F-12, 50% low-glucose DMEM with antibiotics/antimycotics (GIBCO/BRL), insulin-transferrin-selenite, ECGS (Sigma Chemical Co.), and 20% FCS. Statistical analysis of results is done with GraphPad Prism software (GraphPad Software).
# In experiments, normal, diabetic, and DR REC were grown for seven days with or without 10 ng/ml VEGF, or 10 ng/mL IGF-I, or 10 ng/mL each VEGF and IGF-I, in medium with 0.5% serum. Long-term rather than short-term treatment was chosen because diabetes develops over a considerable time period. RNA isolated from REC was reverse-transcribed using Smart™ cDNA synthesis method (Clontech), to produce full-length cDNA. Two normal cases or two DR cases were pooled together. This cDNA was PCR-amplified with a short number of cycles and used as a probe for Clontech Atlas Human 1.2 1,200-gene arrays, according to the manufacturer's instructions. This technique had previously been refined and verified by Northern analysis and fully correlated gene array data with protein expression. (Spirin K S et al., Analysis of gene expression in human bullous keratopathy corneas containing limiting amounts of RNA, Invest. Ophthalmol. Vis. Sci. 40:3108-3115 [1999]). Samples were normalized to several housekeeping genes and the analysis was done with available AtlasImage 2.0 software (Clontech). Signal ratio>2 between samples was considered significant as per manufacturer's recommendation.
# [9] = growth factors at 10 ng/ml each
# [10] = emodin-treated vs vehicle control
compound,measurement,setting,value
"OC[C@H]1O[C@@H](n2cnc3cc(Cl)c(Cl)cc32)[C@H](O)[C@@H]1O [DRB, 5,6-dichloro-1-β-D-ribofuranosylbenzimidazole]",inhibition of REC tube formation,[1],potently inhibited
same,solubility in water,[2],not easily dissolved in water
same,inhibition of REC proliferation,[3],potently inhibited
same,effect on number of live cells (proliferation),"[3]; bovine REC, 10% serum, various concentrations, day 6, MTS",significantly lowers cell number
same,retinal neovascularization diminished by,[4],about 60%
same,inhibition of REC migration,[5],potently inhibited
same,effect on growth factor-mediated cell migration,[5],significant inhibitory effect
same,effect on number of live cells (survival),"[6]; bovine REC, 0.5% serum, various concentrations, day 6, MTS",significantly lowers cell number
same,inhibition of REC secondary sprouting,[7],potently inhibited
same,concentration from which cell number in secondary sprouting is significantly decreased,"[7]; bovine REC on Matrigel, 0.5% serum, day 9, MTS",≥ 25 µM
IGF-I: insulin-like growth factor (IGF)-I,expression of pro-apoptotic genes,[8],decrease
VEGF,expression of pro-apoptotic genes,[8],did not display an increase
same,expression of proliferation-related genes,[8],upregulated
same,growth factor effect on REC migration,[5]; [9],significantly enhanced
same,growth factor effect on REC survival,[6]; [9],little effect
FGF-2: fibroblast growth factor (FGF)-2,growth factor effect on secondary sprouting (in words),[7]; 10 ng/mL growth factor,greatly enhanced
same,stimulation of secondary sprouting (fold),"[7]; growth factors, on average",four-fold
"Cc1cc(O)c2c(c1)C(=O)c1cc(O)cc(O)c1C2=O [emodin, 3-methyl-1,6,8-trihydroxyanthraquinone]",inhibition of REC tube formation,[1],potently inhibited
same,solubility in water,[2],not easily dissolved in water
same,solubility in vehicle,"[2]; phosphate-buffered saline with 20% PEG 400 + 2% Tween-80, pH 7.2",did not ensure emodin solubility
same,inhibition of REC proliferation,[3],potently inhibited
same,neovascular tufts in fluorescein angiograms,[4]; [10],much less pronounced
same,retinal vascularization in fluorescein angiograms,[4]; [10],significantly less vascularization
same,retinal neovascularization diminished by,[4],70-75%
same,inhibition of REC migration,[5],potently inhibited
same,effect on growth factor-mediated cell migration,[5],significant inhibitory effect
same,inhibition of REC secondary sprouting,[7],potently inhibited
CC1CNCCN1S(=O)(=O)c1cccc2cnccc12 (stereo not drawn) [H-7],effect on REC tubes on Matrigel,"[1]; preliminary results, not shown",stabilized
same,inhibition of REC proliferation,[3],inhibited
same,inhibition of REC migration,[5],inhibited
same,inhibition of REC secondary sprouting,[7],inhibited
O=c1c(O)c(-c2ccc(O)c(O)c2)oc2cc(O)cc(O)c12 [quercetin],inhibition of REC tube formation,[1],potently inhibited
same,inhibition of REC proliferation,[3],potently inhibited
same,effect on retinal neovascularization,"[4]; intramuscular injections, data not shown",substantial effect
same,inhibition of REC migration,[5],potently inhibited
same,inhibition of REC secondary sprouting,[7],potently inhibited
